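Test compounds were applied to cells in 96-well plates for 48 hours at 5 doses. GI50 = concentration required for 50% inhibition of growth.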 Active and inactive are the calls of the source. Cut-off read from the data, not from the text of the source: active = GI50 up to about 1.1 µM and inactive = higher.
Experiments:
Test in all cases: growth of human tumour cells (NCI), 48 h
786-0 = tested on: 786-0
A498 = tested on: A498
A549 = tested on: A549
ACHN = tested on: ACHN
BT-549 = tested on: BT-549
CAKI-1 = tested on: CAKI-1
CCRF-CEM = tested on: CCRF-CEM
COLO 205 = tested on: COLO 205
DU-145 = tested on: DU-145
EKVX = tested on: EKVX
HCC 2998 = tested on: HCC 2998
HCT-116 = tested on: HCT-116
HCT-15 = tested on: HCT-15
HL-60 = tested on: HL-60
HOP-62 = tested on: HOP-62
HOP-92 = tested on: HOP-92
HT-29 = tested on: HT-29
Hs-578T = tested on: Hs-578T
IGROV-1 = tested on: IGROV-1
K562 = tested on: K562
KM12 = tested on: KM12
LOX IMVI = tested on: LOX IMVI
M14 = tested on: M14
MCF7 = tested on: MCF7
MDA-MB-231 = tested on: MDA-MB-231
MDA-MB-435 = tested on: MDA-MB-435
MDA-N = tested on: MDA-N
MOLT-4 = tested on: MOLT-4
Malme-3M = tested on: Malme-3M
NCI-H226 = tested on: NCI-H226
NCI-H23 = tested on: NCI-H23
NCI-H460 = tested on: NCI-H460
NCI-H522 = tested on: NCI-H522
NCI/ADR-RES = tested on: NCI/ADR-RES
OVCAR-3 = tested on: OVCAR-3
OVCAR-4 = tested on: OVCAR-4
OVCAR-5 = tested on: OVCAR-5
OVCAR-8 = tested on: OVCAR-8
PC-3 = tested on: PC-3
RPMI-8226 = tested on: RPMI-8226
RXF 393 = tested on: RXF 393
SF-268 = tested on: SF-268
SF-295 = tested on: SF-295
SF-539 = tested on: SF-539
SK-MEL-28 = tested on: SK-MEL-28
SK-MEL-2 = tested on: SK-MEL-2
SK-MEL-5 = tested on: SK-MEL-5
SK-OV-3 = tested on: SK-OV-3
SN12C = tested on: SN12C
SNB-19 = tested on: SNB-19
SNB-75 = tested on: SNB-75
SR = tested on: SR
SW-620 = tested on: SW-620
T47D = tested on: T47D
TK-10 = tested on: TK-10
U-251 = tested on: U-251
UACC-257 = tested on: UACC-257
UACC-62 = tested on: UACC-62
UO-31 = tested on: UO-31

Cc1ccc(/C=C/C(=N/NC(=O)N/N=C(/C=C/c2ccc(C)cc2)C(C)(C)CN2CCCCC2)C(C)(C)CN2CCCCC2)cc1
GI50 (786-0): 1390 nM (inactive) | GI50 (A498): 1670 nM (inactive) | GI50 (A549): 1520 nM (inactive) | GI50 (ACHN): 2000 nM (inactive) | GI50 (BT-549): 2100 nM (inactive) | GI50 (CAKI-1): 2310 nM (inactive) | GI50 (CCRF-CEM): 1300 nM (inactive) | GI50 (COLO 205): 1530 nM (inactive) | GI50 (DU-145): 3480 nM (inactive) | GI50 (EKVX): 2670 nM (inactive) | GI50 (HCC 2998): 1770 nM (inactive) | GI50 (HCT-116): 1340 nM (inactive) | GI50 (HCT-15): 1570 nM | GI50 (HL-60): 1630 nM (inactive) | GI50 (HOP-62): 1650 nM (inactive) | GI50 (HOP-92): 1510 nM (inactive) | GI50 (HT-29): 757 nM (active) | GI50 (Hs-578T): 1520 nM (inactive) | GI50 (IGROV-1): 1980 nM (inactive) | GI50 (K562): 122 nM (active) | GI50 (KM12): 1640 nM (inactive) | GI50 (LOX IMVI): 1160 nM (inactive) | GI50 (M14): 614 nM (active) | GI50 (MCF7): 1470 nM (inactive) | GI50 (MDA-MB-231): 1790 nM (inactive) | GI50 (MDA-MB-435): 1450 nM (inactive) | GI50 (MDA-N): 1520 nM (inactive) | GI50 (MOLT-4): 125 nM (active) | GI50 (Malme-3M): 1670 nM (inactive) | GI50 (NCI-H226): 1820 nM (inactive) | GI50 (NCI-H23): 2190 nM (inactive) | GI50 (NCI-H460): 1640 nM (inactive) | GI50 (NCI-H522): 1630 nM (inactive) | GI50 (NCI/ADR-RES): 1640 nM (inactive) | GI50 (OVCAR-3): 1480 nM (inactive) | GI50 (OVCAR-4): 2070 nM (inactive) | GI50 (OVCAR-5): 2160 nM (inactive) | GI50 (OVCAR-8): 1540 nM (inactive) | GI50 (PC-3): 1690 nM (inactive) | GI50 (RPMI-8226): 258 nM (active) | GI50 (RXF 393): 1280 nM (inactive) | GI50 (SF-268): 1810 nM (inactive) | GI50 (SF-295): 1710 nM (inactive) | GI50 (SF-539): 1770 nM (inactive) | GI50 (SK-MEL-28): 1730 nM (inactive) | GI50 (SK-MEL-2): 1940 nM (inactive) | GI50 (SK-MEL-5): 1670 nM (inactive) | GI50 (SK-OV-3): 1770 nM (inactive) | GI50 (SN12C): 1610 nM (inactive) | GI50 (SNB-19): 2110 nM (inactive) | GI50 (SNB-75): 1460 nM (inactive) | GI50 (SR): 78.7 nM (active) | GI50 (SW-620): 1790 nM (inactive) | GI50 (T47D): 2190 nM (inactive) | GI50 (TK-10): 1740 nM (inactive) | GI50 (U-251): 1480 nM (inactive) | GI50 (UACC-257): 1720 nM (inactive) | GI50 (UACC-62): 2300 nM (inactive) | GI50 (UO-31): 813 nM (active)

CCOC(=O)c1sc2nc(SC)nc3c2c1N=CN3c1ccc(Br)cc1
GI50 (786-0): 40100 nM (inactive) | GI50 (A498): 25200 nM (inactive) | GI50 (A549): > 100000 nM (inactive) | GI50 (ACHN): > 100000 nM (inactive) | GI50 (BT-549): > 100000 nM (inactive) | GI50 (CAKI-1): 98900 nM (inactive) | GI50 (CCRF-CEM): > 100000 nM (inactive) | GI50 (COLO 205): > 100000 nM (inactive) | GI50 (DU-145): > 100000 nM (inactive) | GI50 (EKVX): > 100000 nM (inactive) | GI50 (HCC 2998): > 100000 nM (inactive) | GI50 (HCT-116): > 100000 nM (inactive) | GI50 (HCT-15): > 100000 nM | GI50 (HL-60): > 100000 nM (inactive) | GI50 (HOP-62): 21700 nM (inactive) | GI50 (HOP-92): > 100000 nM (inactive) | GI50 (HT-29): > 100000 nM (inactive) | GI50 (Hs-578T): 23100 nM (inactive) | GI50 (IGROV-1): > 100000 nM (inactive) | GI50 (K562): > 100000 nM (inactive) | GI50 (KM12): > 100000 nM (inactive) | GI50 (LOX IMVI): > 100000 nM (inactive) | GI50 (M14): > 100000 nM (inactive) | GI50 (MCF7): > 100000 nM (inactive) | GI50 (MDA-MB-231): > 100000 nM (inactive) | GI50 (MDA-MB-435): > 100000 nM (inactive) | GI50 (MDA-N): > 100000 nM (inactive) | GI50 (MOLT-4): > 100000 nM (inactive) | GI50 (Malme-3M): > 100000 nM (inactive) | GI50 (NCI-H226): > 100000 nM (inactive) | GI50 (NCI-H23): > 100000 nM (inactive) | GI50 (NCI-H460): > 100000 nM (inactive) | GI50 (NCI-H522): > 100000 nM (inactive) | GI50 (NCI/ADR-RES): > 100000 nM (inactive) | GI50 (OVCAR-3): 24800 nM (inactive) | GI50 (OVCAR-4): > 100000 nM (inactive) | GI50 (OVCAR-5): > 100000 nM (inactive) | GI50 (OVCAR-8): > 100000 nM (inactive) | GI50 (PC-3): > 100000 nM (inactive) | GI50 (RPMI-8226): > 100000 nM (inactive) | GI50 (RXF 393): 25400 nM (inactive) | GI50 (SF-295): > 100000 nM (inactive) | GI50 (SK-MEL-28): > 100000 nM (inactive) | GI50 (SK-MEL-2): > 100000 nM (inactive) | GI50 (SK-MEL-5): > 100000 nM (inactive) | GI50 (SK-OV-3): > 100000 nM (inactive) | GI50 (SN12C): > 100000 nM (inactive) | GI50 (SNB-19): > 100000 nM (inactive) | GI50 (SNB-75): 38200 nM (inactive) | GI50 (SR): > 100000 nM (inactive) | GI50 (SW-620): > 100000 nM (inactive) | GI50 (T47D): > 100000 nM (inactive) | GI50 (TK-10): > 100000 nM (inactive) | GI50 (U-251): 76200 nM (inactive) | GI50 (UACC-257): > 100000 nM (inactive) | GI50 (UACC-62): > 100000 nM (inactive) | GI50 (UO-31): > 100000 nM (inactive)
